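1) Cells in 96-well plates. 2) Compound, 48 h, 5 concentrations. 3) Linear interpolation between surrounding doses. 4) Unreached endpoint = highest concentration. Abbreviation: GI50, concentration required for 50% inhibition of growth. TGI denotes the concentration required for complete inhibition of growth.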
Columns and labels:
Assay in all cases: DTP human tumour cell line panel, 48 h
786-0 renal = tested on: 786-0 renal
A549 NSCLC = tested on: A549 NSCLC
CAKI-1 renal = tested on: CAKI-1 renal
HCT-15 colon = tested on: HCT-15 colon
NCI-H522 lung = tested on: NCI-H522 lung
RXF 393 renal = tested on: RXF 393 renal
SK-MEL-2 melanoma = tested on: SK-MEL-2 melanoma
SW-620 colon = tested on: SW-620 colon
TK-10 renal = tested on: TK-10 renal
UACC-62 melanoma = tested on: UACC-62 melanoma

| Structure (SMILES) | GI50 (786-0 renal) [nM] | TGI (786-0 renal) [nM] | GI50 (A549 NSCLC) [nM] | TGI (A549 NSCLC) [nM] | GI50 (CAKI-1 renal) [nM] | TGI (CAKI-1 renal) [nM] | GI50 (HCT-15 colon) [nM] | TGI (HCT-15 colon) [nM] | GI50 (NCI-H522 lung) [nM] | TGI (NCI-H522 lung) [nM] | GI50 (RXF 393 renal) [nM] | TGI (RXF 393 renal) [nM] | GI50 (SK-MEL-2 melanoma) [nM] | TGI (SK-MEL-2 melanoma) [nM] | GI50 (SW-620 colon) [nM] | TGI (SW-620 colon) [nM] | GI50 (TK-10 renal) [nM] | TGI (TK-10 renal) [nM] | GI50 (UACC-62 melanoma) [nM] | TGI (UACC-62 melanoma) [nM] |
| --- | --- | --- | --- | --- | --- | --- | --- | --- | --- | --- | --- | --- | --- | --- | --- | --- | --- | --- | --- | --- |
| CCC[CH2][Sn]([CH2]CCC)([O]C(=O)/C=C/c1ccccc1F)[O]C(=O)/C=C/c1ccccc1F | 384 | 1170 | 1880 | 3910 | 436 | 1790 | 740 | 1950 | 79.8 | 185 | 256 | 950 | 324 | 1190 | 205 | 479 | 898 | 2030 | 1170 | 2590 |
| O=C1c2ccccc2C(=O)N1C1(C(=O)NC2(C(=O)O)CCCC2)CCCC1 | – | > 100000 | – | > 100000 | – | > 100000 | – | > 100000 | – | > 100000 | – | > 100000 | – | > 100000 | – | > 100000 | – | > 100000 | – | > 100000 |
| Cc1cccc2c(Nc3ccc(NS(C)(=O)=O)cc3)c3ccc([N+](=O)[O-])cc3nc12 | 738 | 4450 | 128 | 3240 | 2430 | 24000 | 1190 | 3540 | 1110 | 2520 | 1380 | 3100 | 2550 | 5490 | 870 | 3230 | 3160 | 17500 | 773 | 3010 |
| C=C1CC[C@@H]2[C@](C)(COC(C)=O)[C@H](OC(C)=O)CC[C@@]2(C)[C@@H]1CC(Nc1ccc(S(=O)(=O)Nc2nccs2)cc1)C1=CCOC1=O (stereo not given in full) | 2550 | 6740 | 3670 | 11200 | 3800 | 14200 | 1730 | 4120 | 1720 | 4320 | 2360 | 4740 | 10600 | 24400 | 1850 | 3980 | 9450 | 21200 | 1760 | 4420 |
